# Test results as given in PMC3704178 (ACS medicinal chemistry letters, 2013).
# What was measured:
# [1] = test system: PrP^Sc level in RML prion-infected mouse neuroblastoma cells (ScN2a-cl3); assay type: cell-based
# [2] = Microsomal stability, mouse microsomes
# [3] = Microsomal stability, human microsomes
compound,measurement,setting,value
CC(=O)c1ccc(N2CCN(Cc3cccs3)CC2)cc1 [Compound 13],Antiprion potency EC50 ± SEM,[1],micromolar range
c1cncc(CN2CCN(c3ccc(-c4nc5ccccc5o4)cc3)CC2)c1 [Compound 41],Fold more potent (EC50) than furanyl 42 and thiophenyl 43,[1],≥ 13 fold
CC(=O)c1ccc(N2CCN(Cc3ccc(C)o3)CC2)cc1 [Compound 19],Antiprion potency EC50 ± SEM,[1],micromolar range
CC(=O)c1ccc(N2CCN(Cc3ccccc3)CC2)cc1 [Compound 1],Antiprion potency EC50 ± SEM,[1],micromolar range
CC(=O)c1ccc(N2CCN(Cc3cccnc3)CC2)cc1 [Compound 7],Antiprion potency EC50 ± SEM,[1],micromolar range
c1cncc(CN2CCN(c3ccc(-c4nc5ccccc5s4)cc3)CC2)c1 [Compound 44],Fold improvement of t1/2 in mouse microsomes compared to 41,[2],approximately 2 fold
COc1ccc(CN2CCN(c3ccc(-c4nc5ccccc5o4)cc3)CC2)cn1 [Compound 47],Fold less potent (EC50) than parent pyridine analog 41,[1],4.5 fold
same,Fold improvement of t1/2 in mouse microsomes compared to 41,[2],approximately 3 fold
same,Fold increase in stability in human microsomes compared to 41,[3],approximately 3 fold
Fc1ccc(CN2CCN(c3ccc(-c4nc5ccccc5o4)cc3)CC2)cn1 [Compound 46],Fold less potent (EC50) than parent pyridine analog 41,[1],1.5 fold
